We go through 19 compounds from patent US20180099931A1 (AbbVie S.à.r.l., priority 2016, published 2018).

Structures are written as SMILES. Where two headings read alike, the source gives them in different places. Bounds are passed on as bounds.

This assay deals with T1, F508delCFTR (Homo sapiens, UniProt P13569, DEL508-508).
T1 construct: expressed in transfected cells; host or cells: CFBE41o- human lung-derived epithelial cells (CFBE4lo-F508delCFTR-HRP), doxycycline-inducible
Nature of the assay: Cell Surface Expression-Horse Radish Peroxidase (CSE-HRP) Assay.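 For Maximum % activity (with co-corrector): co-corrector and positive control are both the same reference corrector at 2 µM.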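 For Maximum % activity (without co-corrector): percent of the 2 µM on-plate positive control corrector response above DMSO.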 It counts as cell-based. The conditions noted are these: for Emax / Maximum % activity (with co-corrector) / Maximum % activity (without co-corrector): maximum at any tested concentration, normalized to on-plate positive control; for Emax: read-out: Maximum % activity (without co-corrector).

Setting [1] is: test compound without co-corrector.
[2] abbreviates: test compound without co-corrector, read-out: EC50 (without co-corrector).
[3] abbreviates: with co-corrector (2 μM of 3-[(2R,4R)-4-({[1-(2,2-difluoro-1,3-benzodioxol-5-yl)cyclopropyl]carbonyl}amino)-7-methoxy-3,4-dihydro-2H-chromen-2-yl]benzoic acid).
Where [4] appears, read: with co-corrector (2 μM of 3-[(2R,4R)-4-({[1-(2,2-difluoro-1,3-benzodioxol-5-yl)cyclopropyl]carbonyl}amino)-7-methoxy-3,4-dihydro-2H-chromen-2-yl]benzoic acid), read-out: EC50 (with co-corrector).
Where [5] appears, read: CSE-HRP, test compound without co-corrector, read-out: EC50 (without co-corrector).
The mark [6] stands for this setting: CSE-HRP, with co-corrector (2 μM of 3-[(2R,4R)-4-({[1-(2,2-difluoro-1,3-benzodioxol-5-yl)cyclopropyl]carbonyl}amino)-7-methoxy-3,4-dihydro-2H-chromen-2-yl]benzoic acid), read-out: EC50 (with co-corrector).
Where [7] appears, read: CSE-HRP, with co-corrector (2 μM).

T1 sequence (P13569 with tags, fused parts or gaps DEL508-508): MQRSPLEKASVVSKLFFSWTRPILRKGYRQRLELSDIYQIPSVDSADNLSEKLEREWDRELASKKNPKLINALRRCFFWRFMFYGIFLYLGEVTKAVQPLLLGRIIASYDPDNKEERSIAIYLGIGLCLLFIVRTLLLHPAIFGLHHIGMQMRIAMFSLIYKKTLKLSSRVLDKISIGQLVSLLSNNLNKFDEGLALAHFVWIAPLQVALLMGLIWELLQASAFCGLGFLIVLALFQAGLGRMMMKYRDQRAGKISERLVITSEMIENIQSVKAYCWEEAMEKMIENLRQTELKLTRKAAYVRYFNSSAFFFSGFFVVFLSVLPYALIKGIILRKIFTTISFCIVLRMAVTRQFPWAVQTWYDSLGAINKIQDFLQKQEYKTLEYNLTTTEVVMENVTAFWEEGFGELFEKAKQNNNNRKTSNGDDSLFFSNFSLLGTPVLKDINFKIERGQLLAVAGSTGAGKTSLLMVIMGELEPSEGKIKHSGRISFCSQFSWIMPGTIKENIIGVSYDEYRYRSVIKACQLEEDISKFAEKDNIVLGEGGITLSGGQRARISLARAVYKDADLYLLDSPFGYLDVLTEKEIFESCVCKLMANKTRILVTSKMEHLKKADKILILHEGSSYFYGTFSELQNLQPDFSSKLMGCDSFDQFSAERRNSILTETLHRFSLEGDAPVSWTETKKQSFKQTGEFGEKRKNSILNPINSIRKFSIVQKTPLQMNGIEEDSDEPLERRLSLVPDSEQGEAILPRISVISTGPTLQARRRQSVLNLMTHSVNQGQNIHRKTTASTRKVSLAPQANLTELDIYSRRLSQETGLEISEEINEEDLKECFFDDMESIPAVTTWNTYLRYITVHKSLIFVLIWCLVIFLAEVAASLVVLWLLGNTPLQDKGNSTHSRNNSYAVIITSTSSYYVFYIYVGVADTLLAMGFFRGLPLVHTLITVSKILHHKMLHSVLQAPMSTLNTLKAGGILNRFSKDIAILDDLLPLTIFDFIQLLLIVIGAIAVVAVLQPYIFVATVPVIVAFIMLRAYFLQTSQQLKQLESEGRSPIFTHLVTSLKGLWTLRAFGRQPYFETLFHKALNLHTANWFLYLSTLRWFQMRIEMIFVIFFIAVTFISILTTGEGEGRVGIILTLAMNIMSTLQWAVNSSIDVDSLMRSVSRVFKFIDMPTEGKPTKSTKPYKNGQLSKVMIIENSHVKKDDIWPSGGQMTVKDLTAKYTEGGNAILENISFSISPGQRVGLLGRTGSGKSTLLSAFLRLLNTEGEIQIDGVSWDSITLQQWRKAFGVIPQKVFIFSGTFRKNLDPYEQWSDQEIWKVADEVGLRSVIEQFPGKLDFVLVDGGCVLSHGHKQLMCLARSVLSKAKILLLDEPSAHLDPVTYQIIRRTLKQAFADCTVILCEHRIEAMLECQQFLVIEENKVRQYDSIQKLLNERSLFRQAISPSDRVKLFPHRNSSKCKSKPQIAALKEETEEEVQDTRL

For the compound `COc1ccc(C(C)(C)C)cc1CN[C@H]1[C@H](C(C)(C)C)[C@@H](C(=O)O)N(C(=O)C2Cc3ccccc3CO2)[C@H]1c1cccnc1N(C)C` (single isomer, unassigned) [II-480], the Emax under setting [1] was under 100%. Also, the EC50 – broadly, the concentration giving half of the maximal effect – lay within 1 to 10 µM under setting [2] and 1 to 10 µM under setting [4]. Also, under setting [3], the “Maximum % activity (with co-corrector)” value was “+++ (≥350)”.
For `COc1ccc(C(C)(C)C)cc1CN[C@H]1[C@H](C(C)(C)C)[C@@H](C(=O)O)N(C(=O)C2Cc3ccccc3CO2)[C@H]1c1cccnc1N(C)C` (single isomer, unassigned) [II-481], the “Maximum % activity (without co-corrector)” value under setting [1] was “++ (≥100 and <200)”. The EC50 by setting is: under setting [2], 1 to 10 µM; under setting [4], 1 to 10 µM. In addition, the “Maximum % activity (with co-corrector)” value under setting [3] is given as “+++ (≥350)”.
For `COc1ccc(C(C)(C)C)cc1CN[C@H]1[C@H](C(C)(C)C)[C@@H](C(=O)O)N(C(=O)C2CCCCO2)[C@H]1c1cccnc1OC(F)F` (single isomer, unassigned) [II-489], the Emax under setting [1] lay in the range of 100 to 200%. Further, the EC50 runs as follows: under setting [2], 1 to 10 µM; under setting [4], 1 to 10 µM. Also, under setting [3], the “Maximum % activity (with co-corrector)” value is given as “+++ (≥350)”.
Regarding `COc1ccc(C(C)(C)C)cc1CN[C@H]1[C@H](C(C)(C)C)[C@@H](C(=O)O)N(C(=O)C2CCCCO2)[C@H]1c1cccnc1OC(F)F` (single isomer, unassigned) [II-490], the EC50 under setting [2] fell in the range of 1 to 10 µM. For the same compound, under setting [3], the “Maximum % activity (with co-corrector)” value is “+++ (≥350)”.
Take `COc1cc(C(F)(F)F)ccc1CN[C@@H]1[C@@H](C(C)(C)C)[C@H](C(=O)O)N(C(=O)C(C)c2ccccc2)[C@@H]1c1ccccc1` (single isomer, unassigned) [III-112]: the Emax under setting [1] was under 100%. The EC50 under setting [2] is 1 to 10 µM and the EC50 under setting [4] lay in the range of 1 to 10 µM. Further, the “Maximum % activity (with co-corrector)” value (with co-corrector (2 μM)) was “++ (≥150 and <350)”.
In the case of `COc1ccc(C(C)(C)C)cc1CN[C@H]1[C@H](C(C)(C)C)[C@@H](C(=O)O)N(C(=O)C(C)n2cc(Cl)c(C)n2)[C@H]1c1ccccc1` (single isomer, unassigned) [III-182], the EC50 lay in the range of 1 to 10 µM under setting [5] and 1 to 10 µM under setting [6]. Also, under setting [7], the “Maximum % activity (with co-corrector)” value was “+++ (≥350)”. In addition, for the setting “CSE-HRP, without co-corrector”, the “Maximum % activity (without co-corrector)” value is on record as “+++ (≥200)”.
`COc1cc(C(F)(F)F)ccc1CN[C@H]1[C@H](C(C)(C)C)[C@@H](C(=O)O)N(C(=O)C2CCCCC2)[C@H]1c1ccccc1OC` (stereo in doubt) [II-50]: the EC50 under setting [5] was under 1 µM and the EC50 under setting [6] is under 1 µM. Besides, the “Maximum % activity (with co-corrector)” value under setting [7] is reported as “+++ (≥350)”. For the same compound, the Emax (CSE-HRP, without co-corrector) fell in the range of 100 to 200%.
For the compound `COc1cc(C(F)(F)F)ccc1CN[C@@H]1[C@@H](C(C)(C)C)[C@H](C(=O)O)N(C(=O)C2CCCCC2)[C@@H]1c1ccccc1OC` (stereo in doubt) [III-40], the Emax under setting [1] lay within 100 to 200%. Further, the EC50 by setting is: under setting [2], 1 to 10 µM; under setting [4], under 1 µM. Moreover, under setting [3], the “Maximum % activity (with co-corrector)” value is “+++ (≥350)”.
For `Cc1cc(C(F)(F)F)cc(N[C@@H]2[C@@H](C(C)(C)C)[C@H](C(=O)O)N(C(=O)C3CCCCC3)[C@@H]2c2ccccc2)n1` [Example 3, (2R,3R,4R,5R)-3-tert-butyl-1-(cyclohexanecarbonyl)-4-{[6-methyl-4-(trifluoromethyl)pyridin-2-yl]amino}-5-phenylpyrrolidine-2-carboxylic acid], the EC50 lay within 1 to 10 µM under setting [2] and 1 to 10 µM under setting [4]. Further, under “with co-corrector (2 μM)”, the “Maximum % activity (with co-corrector)” value was “++ (≥150 and <350)”. For the same compound, the Emax (without co-corrector) was under 100%.
For `Cc1cc(C(F)(F)F)cc(N[C@H]2[C@H](C(C)(C)C)[C@@H](C(=O)O)N(C(=O)C3CCCCC3)[C@H]2c2ccccc2)n1` [Example 4, (2S,3S,4S,5S)-3-tert-butyl-1-(cyclohexanecarbonyl)-4-{[6-methyl-4-(trifluoromethyl)pyridin-2-yl]amino}-5-phenylpyrrolidine-2-carboxylic acid], the EC50 is, setting by setting: under setting [2], 1 to 10 µM; under setting [4], 1 to 10 µM. Further, for the setting “with co-corrector (2 μM)”, the “Maximum % activity (with co-corrector)” value is on record as “+++ (≥350)”. Further, for the setting “without co-corrector”, the Emax is under 100%.
As for `COc1ccc(C(C)(C)C)cc1CN[C@H]1[C@H](C(C)(C)C)[C@@H](C(=O)O)N(C(=O)C2CCCCC2)[C@H]1c1ccccc1` [Example 7, (2S,3S,4S,5S)-3-tert-butyl-4-{[(5-tert-butyl-2-methoxyphenyl)methyl]amino}-1-(cyclohexanecarbonyl)-5-phenylpyrrolidine-2-carboxylic acid], the EC50 under setting [2] is under 1 µM and the EC50 under setting [4] was under 1 µM. In addition, where the note is “with co-corrector (2 μM)”, the “Maximum % activity (with co-corrector)” value is reported as “+++ (≥350)”. For the same compound, where the note is “without co-corrector”, the Emax is over 200%.
With `COc1cc(C(F)(F)F)ccc1CN[C@H]1[C@H](C(C)(C)C)[C@@H](C(=O)O)N(C(=O)C2CCCCC2)[C@H]1c1ccccc1` [Example 8, (2S,3S,4S,5S)-3-tert-butyl-1-(cyclohexanecarbonyl)-4-({[2-methoxy-4-(trifluoromethyl)phenyl]methyl}amino)-5-phenylpyrrolidine-2-carboxylic acid], the EC50 runs as follows: under setting [2], 1 to 10 µM; under setting [4], under 1 µM. Also, the “Maximum % activity (with co-corrector)” value (with co-corrector (2 μM)) is listed as “+++ (≥350)”. The Emax (without co-corrector) is 100 to 200%.
On to `COc1ccc(C(F)(F)F)cc1CN[C@H]1[C@H](C(C)(C)C)[C@@H](C(=O)O)N(C(=O)C2CCCCC2)[C@H]1c1ccccc1` [Example 9, (2S,3S,4S,5S)-3-tert-butyl-1-(cyclohexanecarbonyl)-4-({[2-methoxy-5-(trifluoromethyl)phenyl]methyl}amino)-5-phenylpyrrolidine-2-carboxylic acid], for which the EC50 reads like this: under setting [2], under 1 µM; under setting [4], under 1 µM. For the same compound, the “Maximum % activity (with co-corrector)” value (with co-corrector (2 μM)) is “+++ (≥350)”. In addition, the Emax (without co-corrector) was in the range of 100 to 200%.
Consider `COc1cc(C(F)(F)F)ccc1CN[C@H]1[C@H](C(C)(C)C)[C@@H](C(=O)O)N(C(=O)[C@@H]2CCCCO2)[C@H]1c1ccccc1` [Example 10, (2S,3S,4S,5S)-3-tert-butyl-4-({[2-methoxy-4-(trifluoromethyl)phenyl]methyl}amino)-1-[(2S)-oxane-2-carbonyl]-5-phenylpyrrolidine-2-carboxylic acid], for which the EC50 lay in the range of 1 to 10 µM under setting [2] and 1 to 10 µM under setting [4]. In addition, the “Maximum % activity (with co-corrector)” value (with co-corrector (2 μM)) is recorded as “+++ (≥350)”. The Emax (without co-corrector) was over 200%.
Turning to `COc1ncc(C(F)(F)F)cc1CN[C@H]1[C@H](C(C)(C)C)[C@@H](C(=O)O)N(C(=O)C2CCCCC2)[C@H]1c1ccccc1` [Example 12, (2S,3S,4S,5S)-3-tert-butyl-1-(cyclohexanecarbonyl)-4-({[2-methoxy-5-(trifluoromethyl)pyridin-3-yl]methyl}amino)-5-phenylpyrrolidine-2-carboxylic acid], the EC50 was under 1 µM under setting [2] and under 1 µM under setting [4]. Further, the “Maximum % activity (with co-corrector)” value (with co-corrector (2 μM)) is “+++ (≥350)”. In addition, the Emax (without co-corrector) was 100 to 200%.
Turning to `COc1ccc(C(C)(C)C)cc1CN[C@H]1[C@H](C(C)(C)C)[C@@H](C(=O)O)N(C(=O)OC(C)C)[C@H]1c1ccccc1OC` [Example 13, (2S,3S,4S,5S)-3-tert-butyl-4-{[(5-tert-butyl-2-methoxyphenyl)methyl]amino}-5-(2-methoxyphenyl)-1-{[(propan-2-yl)oxy]carbonyl}pyrrolidine-2-carboxylic acid], the EC50 is, setting by setting: under setting [2], 1 to 10 µM; under setting [4], 1 to 10 µM. Moreover, the “Maximum % activity (with co-corrector)” value (with co-corrector (2 μM)) is listed as “+++ (≥350)”. Moreover, the Emax (without co-corrector) lay in the range of 100 to 200%.
As to `COc1ncc(C(F)(F)F)cc1CN[C@H]1[C@H](C(C)(C)C)[C@@H](C(=O)O)N(C(=O)C2CCCCC2)[C@H]1c1ccccc1OC(F)F` [Example 14, (2S,3S,4S,5S)-3-tert-butyl-1-(cyclohexanecarbonyl)-5-[2-(difluoromethoxy)phenyl]-4-({[2-methoxy-5-(trifluoromethyl)pyridin-3-yl]methyl}amino)pyrrolidine-2-carboxylic acid], the EC50 by setting is: under setting [2], 1 to 10 µM; under setting [4], 1 to 10 µM. The “Maximum % activity (with co-corrector)” value (with co-corrector (2 μM)) is reported as “+++ (≥350)”. For the same compound, the Emax (without co-corrector) was under 100%.
Turning to `COc1ccc(C(C)(C)C)cc1CN[C@H]1[C@H](C(C)(C)C)[C@@H](C(=O)O)N(S(=O)(=O)c2ccccc2)[C@H]1c1ccccc1` [Example 15, (2S,3S,4S,5S)-1-(benzenesulfonyl)-3-tert-butyl-4-{[(5-tert-butyl-2-methoxyphenyl)methyl]amino}-5-phenylpyrrolidine-2-carboxylic acid], the EC50 runs as follows: under setting [2], 1 to 10 µM; under setting [4], 1 to 10 µM. For the same compound, the “Maximum % activity (with co-corrector)” value (with co-corrector (2 μM)) is “+++ (≥350)”. Where the note is “without co-corrector”, the Emax is 100 to 200%.
As to `COc1ncc(C2CCC2)cc1CN[C@H]1[C@H](C(C)(C)C)[C@@H](C(=O)O)N(C(=O)C2CCCCC2)[C@H]1c1ccccc1` [Example 16, (2S,3S,4S,5S)-3-tert-butyl-4-{[(5-cyclobutyl-2-methoxypyridin-3-yl)methyl]amino}-1-(cyclohexanecarbonyl)-5-phenylpyrrolidine-2-carboxylic acid], the EC50 reads like this: under setting [2], under 1 µM; under setting [4], under 1 µM. Further, for the setting “with co-corrector (2 μM)”, the “Maximum % activity (with co-corrector)” value is given as “+++ (≥350)”. Moreover, where the note is “without co-corrector”, the Emax was over 200%.
